Columns and labels:
[1] = system: P. aeruginosa resistant strains; assay: Sensitivity test against clinical isolates, P. aeruginosa resistant strains; assay type: cell-based; conditions: 54 resistant strains
Experimental: It is noted here that the 54 strains have been chosen because there have been the strains in duplicate with the agents. ______________________________________ Ceftazidime (CAZ) (25 to 100 μg/ml) 21 strains Cefsulodine (CFS) (25 to >100 μg/ml) 23 strains Piperacilin (PIPC) (25 to >100 μg/ml) 15 strains Gentamycin (GM) (25 to >100 μg/ml) 21 strains Amikacin (AMK) (25 to >100 μg/ml) 26 strains Ofloxacin (OFLX) (25 to >100 μg/ml) 4 strains ______________________________________
A minimum inhibitory concentration (MIC) was determined in substantially the same manner as the test procedures II above using the 54 strains of P. aeruginosa having an anti-Pseudomonas resistance.

[2] = set-up: species or system male mice of CrjCD(SD) type; conditions: mouse, in vivo, sc, 500 mg/kg
Experimental: Toxicological studies have been carried out using a group of 10 male mice of CrjCD(SD) type weighing from 20 to 23 grams. A solution containing the carbapenem compound (15) of the present invention obtained by Example 6 was administered subcutaneously to the mice and subjected to observations for one week.

[3] = system: C. freundii resistant strains; assay: Sensitivity test against clinical isolates, C. freundii resistant strains; assay type: cell-based; conditions: CFIX/CTX resistant strains
Experimental: Cefixime (CFIX) (50 to >100 μg/ml)
Cefotaxime (CTX) (50 to >100 μg/ml)
The tests were carried out in the same manner as described above Test 1.

[4] = system: Swine Kidney Dehydropeptidase-I (DHP-I); assay: Hydrolysis activity against DHP-I enzyme substrate by late assay; assay type: in vitro ADME; conditions: final substrate concentration 100 μM, 10 minutes, pH 7.1
Experimental: The swine kidney (8 kg) was homogenized and an enzyme protein was allowed to precipitate. After a connective lipid was removed with acetone, the resultant material was made soluble by treatment with butanol and purified in the order by the ammonium sulfate fraction method, thereby producing DPH-I enzyme from a 75% ammonium sulfate fraction.
The DHP-I enzyme was then adjusted to give an enzyme concentration of 25 mg/10 ml (phosphate buffer, pH 7.1), and divided into 1 ml portions. The portions were frozen and stored at -40° C. or less until use.
As control compounds were employed glycyl dehydrophenylalanine (Gl-dh-Ph) and imipenem, and they were adjusted in situ each to give the concentration of 177 μM with the same sodium phosphate buffer solution.
To 1.2 ml of a 50 mM sodium phosphate buffer solution (substrate) containing 177 μM of each of Gh-dh-Ph and imipenem as the control compounds was added 0.2 ml of the DHP-I enzyme solution (25 mg/10 ml) prepared above in the final substrate concentration of 100 μM. The solution was then incubated at […] for 10 minutes. An initial velocity of hydrolysis of the substrate was measured from a decrease in absorbency at a particular λmax of each of the substrates.
A blank test was conducted in substantially the same manner as above by adding 0.2 ml of the sodium phosphate buffer solution (pH 7.1) to 1.2 ml of the above substrate.

physchem = conditions: amorphous solid storage
[5] = over a period of ten days
[6] = system: Klebsiella pneumoniae PCI-602; assay: Antibacterial test, agar plate dilution method; conditions: 37° C., 18 hours, MH agar
[7] = system: Micrococcus luteus ATCC9341; assay: Antibacterial test, agar plate dilution method; conditions: 37° C., 18 hours, MH agar
[8] = system: Pseudomonas aeruginosa NCTC 10490; assay: Antibacterial test, agar plate dilution method; conditions: 37° C., 18 hours, MH agar
[9] = system: Streptococcus pyogenes Cook; assay: Antibacterial test, agar plate dilution method; conditions: 37° C., 18 hours, MH agar
Proteus vulgaris HX-19 = assay: Antibacterial test, agar plate dilution method; conditions: 37° C., 18 hours, MH agar
[10] = system: Escherichia coli NIHJ JC-2; assay: Antibacterial test, agar plate dilution method; conditions: 37° C., 18 hours, MH agar
[11] = system: Providencia rettgeri IFO 3850; assay: Antibacterial test, agar plate dilution method; conditions: 37° C., 18 hours, MH agar
[12] = system: Salmonella typhimurium IID971; assay: Antibacterial test, agar plate dilution method; conditions: 37° C., 18 hours, MH agar
[13] = system: Pseudomonas aeruginosa IFO 3445; assay: Antibacterial test, agar plate dilution method; conditions: 37° C., 18 hours, MH agar
[14] = system: Salmonella paratyphi 1015; assay: Antibacterial test, agar plate dilution method; assay type: cell-based; conditions: 37° C., 18 hours, MH agar
[15] = system: Serratia marcescens IAM1184; assay: Antibacterial test, agar plate dilution method; conditions: 37° C., 18 hours, MH agar
[16] = system: Escherichia coli K12 C600; assay: Antibacterial test, agar plate dilution method; assay type: cell-based; conditions: 37° C., 18 hours, MH agar
[17] = system: Staphylococcus aureus FDA 209P JC-1; assay: Antibacterial test, agar plate dilution method; conditions: 37° C., 18 hours, MH agar
Salmonella typhi 901 = assay: Antibacterial test, agar plate dilution method; assay type: cell-based; conditions: 37° C., 18 hours, MH agar
[18] = system: Staphylococcus aureus MS352; assay: Antibacterial test, agar plate dilution method; conditions: 37° C., 18 hours, MH agar
Proteus vulgaris OX-19 = assay: Antibacterial test, agar plate dilution method; conditions: 37° C., 18 hours, MH agar
[19] = system: Salmonella schottmuelleri 8006; assay: Antibacterial test, agar plate dilution method; conditions: 37° C., 18 hours, MH agar
[20] = system: Bacillus subtilis ATCC6633; assay: Antibacterial test, agar plate dilution method; conditions: 37° C., 18 hours, MH agar
Enterobacter cloacae 963 = assay: Antibacterial test, agar plate dilution method; conditions: 37° C., 18 hours, MH agar
[21] = system: Salmonella enteritidis G14; assay: Antibacterial test, agar plate dilution method; conditions: 37° C., 18 hours, MH agar
[22] = system: Escherichia coli No. 1501; assay: Antibacterial activity against clinically isolated β-lactamase producing strains; assay type: cell-based; conditions: cephalosporinase producing strain, 18 to 20 hours
Experimental: (§1) A solution of a cephalosporinase producing strain stored by Episome Research Institute, which was prepared by incubating the strain in a sensitivity test broth (STB; product of Nissui K.K.) for 18 hours, was diluted with a fresh STB solution to contain 10^5 cells per milliliter and the diluted solution was then inoculated as spots with a microplanter on a sensitivity disk agar-N (SDA; product of Nissui K.K.) containing a test compound. The disk agar was then incubated for 18 to 20 hours. A minimum inhibitory concentration was determined as a minimum concentration in which the test microorganism had no longer grown after a 18 to 20 hour incubation.

[23] = system: Providencia rettgeri GN 4762; assay: as above; assay type: cell-based; conditions: cephalosporinase producing strain, 18 to 20 hours
Experimental: as §1

Serratia marcescens L-65 = assay: as above; assay type: cell-based; conditions: cephalosporinase producing strain, 18 to 20 hours
Experimental: as §1

[24] = system: Citrobactor freundii GN 7391; assay: as above; assay type: cell-based; conditions: cephalosporinase producing strain, 18 to 20 hours
Experimental: as §1

[25] = system: Enterobacter cloacae GN 7471; assay: as above; assay type: cell-based; conditions: cephalosporinase producing strain, 18 to 20 hours
Experimental: as §1

Proteus vulgaris GN 76 = assay: as above; assay type: cell-based; conditions: cephalosporinase producing strain, 18 to 20 hours
Experimental: as §1

Escherichia coli GN 5482 = assay: as above; assay type: cell-based; conditions: cephalosporinase producing strain, 18 to 20 hours
Experimental: as §1

[26] = system: Pseudomonas aeruginosa GN 10362; assay: as above; assay type: cell-based; conditions: cephalosporinase producing strain, 18 to 20 hours
Experimental: as §1

Proteus morganii GN 5307 = assay: as above; assay type: cell-based; conditions: cephalosporinase producing strain, 18 to 20 hours
Experimental: as §1

Proteus vulgaris GN 7919 = assay: as above; assay type: cell-based; conditions: cephalosporinase producing strain, 18 to 20 hours
Experimental: as §1

[27] = system: Citrobactor freundii GN 346; assay: as above; assay type: cell-based; conditions: cephalosporinase producing strain, 18 to 20 hours
Experimental: as §1

[28] = system: Providencia rettgeri GN 5284; assay: as above; assay type: cell-based; conditions: cephalosporinase producing strain, 18 to 20 hours
Experimental: as §1

Proteus morganii GN 5375 = assay: as above; assay type: cell-based; conditions: cephalosporinase producing strain, 18 to 20 hours
Experimental: as §1

[29] = system: Providencia rettgeri GN 4430; assay: as above; assay type: cell-based; conditions: cephalosporinase producing strain, 18 to 20 hours
Experimental: as §1

Serratia marcescens L-82 = assay: as above; assay type: cell-based; conditions: cephalosporinase producing strain, 18 to 20 hours
Experimental: as §1

[30] = system: Pseudomonas cepacia GN 11164; assay: as above; assay type: cell-based; conditions: cephalosporinase producing strain, 18 to 20 hours
Experimental: as §1

Proteus morganii GN 5407 = assay: as above; assay type: cell-based; conditions: cephalosporinase producing strain, 18 to 20 hours
Experimental: as §1

[31] = system: Pseudomonas aeruginosa GN 10367; assay: as above; assay type: cell-based; conditions: cephalosporinase producing strain, 18 to 20 hours
Experimental: as §1

[32] = system: Serratia marcescens GN 10857; assay: as above; assay type: cell-based; conditions: cephalosporinase producing strain, 18 to 20 hours
Experimental: as §1

[33] = system: Pseudomonas aeruginosa GN 918; assay: as above; assay type: cell-based; conditions: cephalosporinase producing strain, 18 to 20 hours
Experimental: as §1

Escherichia coli No. 96 = assay: as above; assay type: cell-based; conditions: cephalosporinase producing strain, 18 to 20 hours
Experimental: as §1

[34] = system: Enterobacter cloacae GN 7467; assay: as above; assay type: cell-based; conditions: cephalosporinase producing strain, 18 to 20 hours
Experimental: as §1

[35] = system: Enterobacter cloacae GN 5797; assay: as above; assay type: cell-based; conditions: cephalosporinase producing strain, 18 to 20 hours
Experimental: as §1

[36] = system: Klebsiella oxytoca GN 10650; assay: as above; assay type: cell-based; conditions: cephalosporinase producing strain, 18 to 20 hours
Experimental: as §1

Proteus vulgaris GN 4413 = assay: as above; assay type: cell-based; conditions: cephalosporinase producing strain, 18 to 20 hours
Experimental: as §1

[37] = system: Staphylococcus aureus Terajima; assay: Antibacterial test, agar plate dilution method; conditions: 37° C., 18 hours, MH agar
[38] = system: Morganella morganii IFO3848; assay: Antibacterial test, agar plate dilution method; conditions: 37° C., 18 hours, MH agar
[39] = system: Proteus mirabilis IFO3849; assay: Antibacterial test, agar plate dilution method; conditions: 37° C., 18 hours, MH agar
[40] = system: Enterobacter aerougenes ATCC13048; assay: Antibacterial test, agar plate dilution method; conditions: 37° C., 18 hours, MH agar

C[C@@H](O)[C@H]1C(=O)N2C(C(=O)[O-])=C(SC3Cn4cnc[n+]4C3)[C@H](C)[C@H]12 (stereo partly drawn) [Compound 15, 6-[(R)-1-hydroxyethy]-1-methyl-2-(5H-pyrazolo[1,2-a]triazolinium-6-yl) thio-carbapenem-3-carboxylic acid]
test microorganisms whose growth is inhibited ([1]; concentration of 12.5 μg/ml): all the test microorganisms | test microorganisms whose growth is inhibited ([1]; concentration of […]): approximately 98% | survival and abnormal observations [2]: alive without any abnormal observations | test microorganisms whose growth is inhibited ([3]; concentration of 0.78 μg/ml): approximately 98% | test microorganisms whose growth is inhibited ([3]; concentration of 1.56 μg/ml): all the test microorganisms

NCC(=O)NC(=Cc1ccccc1)C(=O)O [Gl-dh-Ph, glycyl dehydrophenylalanine]
initial velocity of hydrolysis against DHP-I [4]: 17.4 µM/min

C[C@@H](O)[C@H]1C(=O)N2C(C(=O)[O-])=C(SC3Cn4cnc[n+]4C3)[C@H](C)[C@H]12 (stereo partly drawn) [amorphous form]
remaining at 240 h (physchem): ~40%

C[C@@H](O)[C@H]1C(=O)N2C(C(=O)[O-])=C(SC3Cn4cnc[n+]4C3)[C@H](C)[C@H]12 (stereo partly drawn) [crystalline form]
loss of potency on storage [5]: no appreciable loss of potency

(1R, 5S, 6S)-2-[4-pyrazolidinyl]thio-6-[(R)-1-hydroxyethyl]-1-methyl-carbapenem-3-carboxylic acid [Compound 14]
MIC [6]: 0.05 µg/mL | MIC [7]: 0.1 µg/mL | MIC [8]: 0.78 µg/mL | MIC [9]: 0.025 µg/mL | MIC (Proteus vulgaris HX-19): 0.1 µg/mL | MIC [10]: 0.05 µg/mL | MIC [11]: 0.2 µg/mL | MIC [12]: 0.1 µg/mL | MIC [13]: 0.78 µg/mL | MIC [14]: 0.39 µg/mL | MIC [15]: 0.2 µg/mL | MIC [16]: 0.2 µg/mL | MIC [17]: 0.05 µg/mL | MIC (Salmonella typhi 901): 0.025 µg/mL | MIC [18]: 0.1 µg/mL | MIC (Proteus vulgaris OX-19): 0.025 µg/mL | MIC [19]: 0.2 µg/mL | MIC [20]: 0.1 µg/mL | MIC (Enterobacter cloacae 963): 0.1 µg/mL | MIC [21]: 0.2 µg/mL | MIC [22]: 0.025 µg/mL | MIC [23]: 0.2 µg/mL | MIC (Serratia marcescens L-65): 0.2 µg/mL | MIC [24]: 0.78 µg/mL | MIC [25]: 0.1 µg/mL | MIC (Proteus vulgaris GN 76): 1.56 µg/mL | MIC (Escherichia coli GN 5482): 0.025 µg/mL | MIC [26]: 1.56 µg/mL | MIC (Proteus morganii GN 5307): 0.39 µg/mL | MIC (Proteus vulgaris GN 7919): 1.56 µg/mL | MIC [27]: 0.78 µg/mL | MIC [28]: 0.2 µg/mL | MIC (Proteus morganii GN 5375): 1.56 µg/mL | MIC [29]: 0.2 µg/mL | MIC (Serratia marcescens L-82): 0.1 µg/mL | MIC [30]: 0.39 µg/mL | MIC (Proteus morganii GN 5407): 1.56 µg/mL | MIC [31]: 1.56 µg/mL | MIC [32]: 1.56 µg/mL | MIC [33]: 1.56 µg/mL | MIC (Escherichia coli No. 96): 0.025 µg/mL | MIC [34]: 1.56 µg/mL | MIC [35]: 0.1 µg/mL | MIC [36]: 0.1 µg/mL | MIC (Proteus vulgaris GN 4413): 1.56 µg/mL | MIC [37]: 0.025 µg/mL | MIC [38]: 0.1 µg/mL | MIC [39]: 0.39 µg/mL | MIC [40]: 0.39 µg/mL

— US4990613A, “(1R,5S,6S)-2-[(6,7-dih ydro-5H-pyrazolo[1,2-a][1,2,4]triazolium-6-yl)]thio-6-[R-1-hydroxyethyl]- 1-methyl-carbapenem-3-carboxylate and intermediate therefor” (Lederle (Japan), Ltd., priority 1987, dated 1991)
